Broadly, the Papp A→B is how fast a substance crosses the layer from the apical side. One may read the IC50 as the concentration at which inhibition is half-maximal.

For data set [1], the system named is GL261-Luc. Put plainly: Antitumor activity against mouse GL261-Luc cells implanted in C57BL/6 mouse assessed as reduction in tumor cell growth at 10 mg/kg, iv administered every other day on day 0,2,4,6,8,10 and measured after 12 days by H and E staining based analysis. Format: functional, organism-based. The conditions noted are these: time 12.0 day.
For data set [2], the system named is GL261-Luc. Put plainly: Antivascular activity against mouse GL261-Luc cells implanted in C57BL/6 mouse assessed as reduction in tumor microvessel density at 5 to 10 mg/kg, iv administered every other day on day 0,2,4,6,8,10 and measured after 12 days by IHC staining based analysis. The conditions noted are these: dose 5-10 mg/kg, time 12.0 day. It counts as functional, organism-based.

Data set [3] concerns U-87 MG. Put plainly: Induction of apoptosis in human U87 cells assessed as late apoptotic cells at 2.5 uM incubated for 48 hrs by Annexin V-FITC/PI staining based flow cytometry analysis (reference value: 2.08%). Format: functional, U-87MG ATCC.
For data set [4], the system named is U-87 MG. Put plainly: Induction of apoptosis in human U87 cells assessed as early apoptotic cells at 0.625 uM incubated for 48 hrs by Annexin V-FITC/PI staining based flow cytometry analysis (reference value: 6.25%). Format: functional, U-87MG ATCC. Background: A flow cytometer gives signals particle by particle.
The test system of data set [5] is U-87 MG. Nature of the data set: Induction of apoptosis in human U87 cells assessed as dead cells at 1.25 uM incubated for 48 hrs by Annexin V-FITC/PI staining based flow cytometry analysis (reference value: 0.013%). It counts as functional, U-87MG ATCC.
Data set [6] addresses Tubulin (Homo sapiens) (UniProt P68371+Q9H4B7+P0DPH7+P68366+Q13509+Q71U36+P04350+Q3ZCM7+P07437+P68363+Q9BQE3+Q6PEY2+Q13885+Q9BVA1+Q9BUF5). Put plainly: Binding affinity to colchicine binding site of tubulin in human U87 cells assessed as inhibition of EBI-tubulin adduct formation by measuring disappearance of adduct bands pretreated for 2 hrs followed by EBI addition and measured after 2 hrs by Western blot analysis. It counts as cell-based. The conditions noted are these: dose 10-100 µM, time 4.0 hrs.

The nature of data set [7]: Apparent permeability across apical to basolateral side in MDCK-MDR1 cells at 10 uM incubated for 90 mins by LC-MS/MS analysis. It counts as ADME, cell-based, Canis lupus familiaris. The conditions noted are these: dog.
In data set [8] the test system is U-87 MG. Nature of the data set: Induction of apoptosis in human U87 cells assessed as late apoptotic cells at 1.25 uM incubated for 48 hrs by Annexin V-FITC/PI staining based flow cytometry analysis (reference value: 2.08%). It counts as functional, U-87MG ATCC.
In data set [9] the test system is U-87 MG. Nature of the data set: Induction of apoptosis in human U87 cells assessed as live cells at 1.25 uM incubated for 48 hrs by Annexin V-FITC/PI staining based flow cytometry analysis (reference value: 91.7%). It counts as functional, U-87MG ATCC.
Data set [10] is described as follows: Toxicity in C57BL/6 mouse implanted with mouse GL261-Luc cells assessed as histopathological changes in lung at 5 to 10 mg/kg, iv administered every other day on day 0,2,4,6,8,10 and measured after 12 days by H and E staining based analysis. It counts as organism-based. The conditions noted are these: in vivo, 288 h, dose 5-10 mg/kg, time 12 day.
The subject of data set [11] is U-87MG ATCC. Nature of the data set: Upregulation of NECTIN4 gene expression in human U87 cells by transcriptome analysis. It counts as functional, cell-based.
Data set [12] has as its system U-87 MG. Put plainly: Antiproliferative activity against human U87 cells assessed as inhibition of cell growth inhibition incubated for 48 hrs by CCK-8 assay. It counts as functional, cell-based, U-87MG ATCC. In general terms: Tetrazolium assays rely on reduction of a dye to a coloured formazan, in cell work by metabolically active cells.
Data set [13] concerns U-87 MG. Put plainly: Inhibition of cell migration in human U87 cells assessed as reduction in wound healing measured after 24 to 48 hrs by scratch assay. It counts as functional, cell-based. The conditions noted are these: U-87MG ATCC, dose 0-1 µM, time 24-48 hrs.
The subject of data set [14] is A549. Put plainly: Antiproliferative activity against human A549 cells assessed as inhibition of cell growth inhibition incubated for 48 hrs by CCK-8 assay. It counts as functional, cell-based. The conditions noted are these: A549, 48 h.
The subject of data set [15] is U-87 MG. Put plainly: Induction of cell cycle arrest in human U87 cells assessed as accumulation of cells at […] at 1 uM measured after 48 hrs by PI staining based flow cytometry analysis (reference value: 8.55%). It counts as functional, U-87MG ATCC.
Data set [16] in a line: Toxicity in C57BL/6 mouse implanted with mouse GL261-Luc cells assessed as histopathological changes in liver at 5 to 10 mg/kg, iv administered every other day on day 0,2,4,6,8,10 and measured after 12 days by H and E staining based analysis. Format: organism-based. The conditions noted are these: in vivo, 288 h, dose 5-10 mg/kg, time 12 day.
Data set [17] has as its system U-87 MG. Put plainly: Induction of apoptosis in human U87 cells assessed as live cells at 2.5 uM incubated for 48 hrs by Annexin V-FITC/PI staining based flow cytometry analysis (reference value: 91.7%). It counts as functional, U-87MG ATCC.
The nature of data set [18]: Toxicity in C57BL/6 mouse implanted with mouse GL261-Luc cells assessed as histopathological changes in heart at 5 to 10 mg/kg, iv administered every other day on day 0,2,4,6,8,10 and measured after 12 days by H and E staining based analysis. Format: organism-based. The conditions noted are these: in vivo, 288 h, dose 5-10 mg/kg, time 12 day.
Data set [19] deals with U-87 MG. Put plainly: Induction of cell cycle arrest in human U87 cells assessed as accumulation of cells at […] at 2 uM measured after 48 hrs by PI staining based flow cytometry analysis (reference value: 8.55%). It counts as functional, U-87MG ATCC.

Molecules are shown by their SMILES. The source made the active and inactive calls. The calls are words filed in the database; no cut-off is given here.

As to `Cc1ccc2ccc3c(c2n1)OC(N)=C(C#N)C3c1ccccc1` (centres undefined), the result in [1], in [2] and in [11] was Active. The Activity in [3] is 16.8%; in data set [4] it was 16.1%; in [5] it was 0.027%; in data set [6] it was “Dose-Dependent Effect”; in [8] it was 7.82%; in [9], 73.9%. The Activity entry in data set [10] is recorded as “Non-Toxic”; in data set [15], 24.6%; in [16], “Non-Toxic”; in [17], 62.5%; in data set [18], “Non-Toxic”; in [19] it was 56.2%. Also, the Papp A→B at 1.5 h, 10 µM in data set [7] is 33.7 ×10⁻⁶ cm/s. Moreover, the IC50 in data set [12] amounted to 900 nM; in data set [14], 880 nM. In addition, the inhibition entry in data set [13] was “Dose-Dependent Effect”.

For the origin of these results see ChEMBL document CHEMBL5543095 (Eur J Med Chem, 2024).
